Data as given in EP2601952A1, “Novel pharmaceutically acceptable salts and cocrystals of 5-chloro-3-(4-methanesulfonylphenyl)-6'-methyl-[2,3']bipyridinyl and their therapeutic uses” (Zentiva, k.s., priority 2011, dated 2013).

Tests used:
[1] = DVS isotherm (hygroscopicity, hydrate formation); type: physicochemical; conditions: for hygroscopicity: DVS isotherm plot (Figure 4 / Figure 11)
[2] = Polymorphic stability: maturation / slurrying of the salts in various solvents; type: physicochemical
Description: Example 6: Method for assessing polymorphic stability of the succinic acid salt and Form A of the fumaric acid salt of 5-chloro-3-(4-methanesulfonylphenyl)-6'-methyl-[2,3']bipyridinyl.
Approximately 50-100 mg of the salts under investigation were suspended in 1ml of water, ethanol, 1-propanol, 2-propanol, 1-butanol, 2-butanol, tert-butanol, 1-pentanol, acetone, methyl ethyl ketone, isobutyl methyl ketone, ethyl formate, methyl acetate, ethyl acetate, propyl acetate, isopropyl acetate, butyl acetate, isobutyl acetate, tetrahydrofuran, 1,4-dioxane, toluene, acetonitrile and N-methyl pyrrolidine. […] The excess solvent was removed and the samples evaporated to dryness in a vacuum oven at 25 °C.

[3] = anhydrous crystalline forms I, II, III, IV and V; Journal of Pharmaceutical Sciences, 95, 1, 56-69 (2006); cited from earlier work

hygroscopicity [1]	polymorphic conversion on slurrying ([2]; slurrying in an aliphatic alcohol or cyclic ether)	stability with respect to hydrate formation ([1]; DVS isotherm plot, Figure 4)	polymorphic changes when maturated in various solvents ([2]; Example 6: suspended in 1 ml of solvent, agitated at 25°C for 35 days)	SMILES	instability of anhydrous crystalline forms [3]
relatively non-hygroscopic	Form B can be generated	–	–	Cc1ccc(-c2ncc(Cl)cc2-c2ccc(S(C)(=O)=O)cc2)cn1.O=C(O)/C=C/C(=O)O [Form A of the fumaric acid salt, fumaric acid salt of 5-chloro-3-(4-methanesulfonylphenyl)-6'-methyl-[2,3']bipyridinyl]	–
–	–	–	–	Cc1ccc(-c2ncc(Cl)cc2-c2ccc(S(C)(=O)=O)cc2)cn1 [etoricoxib, 5-Chloro-3-(4-methanesulfonylphenyl)-6'-methyl-[2,3']bipyridinyl]	convert to hemihydrate
relatively non-hygroscopic	–	stable with respect to hydrate formation	lack of observed polymorphic changes	Cc1ccc(-c2ncc(Cl)cc2-c2ccc(S(C)(=O)=O)cc2)cn1.O=C(O)CCC(=O)O [succinic acid salt, succinic acid salt of 5-chloro-3-(4-methanesulfonylphenyl)-6'-methyl-[2,3']bipyridinyl]	–
